Source: ChEMBL document CHEMBL1201862, “PubChem BioAssay data set” (2004)
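All cell lines were grown in 96-well plates and treated with compound for 48 hours. GI50: concentration for 50% inhibition of growth.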 Active and inactive are the calls of the source. No stated cut-off is given here; in the data, active = GI50 up to about 1.1 µM and inactive = higher.

Assays:
Experiment in all cases: NCI-60 cell line screen, 48 h
KM12 = test system: KM12
NCI-H522 = test system: NCI-H522
SW-620 = test system: SW-620
T47D = test system: T47D
RXF 393 = test system: RXF 393
NCI-H460 = test system: NCI-H460
TK-10 = test system: TK-10
PC-3 = test system: PC-3
HOP-92 = test system: HOP-92
SK-MEL-2 = test system: SK-MEL-2
HCT-116 = test system: HCT-116
SR = test system: SR
SK-MEL-28 = test system: SK-MEL-28
MDA-MB-231 = test system: MDA-MB-231
NCI-H23 = test system: NCI-H23
EKVX = test system: EKVX
HL-60 = test system: HL-60
SK-OV-3 = test system: SK-OV-3
UACC-62 = test system: UACC-62
HCC 2998 = test system: HCC 2998

Measured: GI50

COC(=O)C1=C(OC(=O)/C(=C/c2ccc(Cl)cc2)c2ccc(Cl)cc2)C(C(=O)OC)[C@@]2(O)[C@@H](C(=O)OC)[C@H](C)C[C@@H]1[C@@H]2C(=O)OC (stereo not given in full)
inactive: KM12 11 µM | NCI-H522 3.87 µM | SW-620 78.2 µM | T47D > 74 µM | RXF 393 > 61.4 µM | NCI-H460 14.3 µM | TK-10 > 100 µM | PC-3 12.6 µM | HOP-92 6.67 µM | SK-MEL-2 > 92.7 µM | HCT-116 31.6 µM | SR > 63.2 µM | SK-MEL-28 > 100 µM | MDA-MB-231 > 71.9 µM | NCI-H23 25.2 µM | EKVX 10.6 µM | HL-60 > 100 µM | SK-OV-3 > 100 µM | UACC-62 > 100 µM | HCC 2998 > 73.6 µM

CCCCNc1nc2ccccc2c2c1ncn2CC(C)C
inactive: KM12 > 100 µM | NCI-H522 > 100 µM | SW-620 > 100 µM | T47D > 100 µM | RXF 393 > 100 µM | NCI-H460 > 100 µM | TK-10 > 100 µM | PC-3 > 100 µM | HOP-92 > 100 µM | SK-MEL-2 > 100 µM | HCT-116 > 100 µM | SR > 100 µM | SK-MEL-28 > 100 µM | MDA-MB-231 > 100 µM | NCI-H23 > 100 µM | EKVX > 100 µM | HL-60 > 100 µM | SK-OV-3 > 100 µM | UACC-62 > 100 µM | HCC 2998 > 100 µM

O=C(Oc1ccccn1)c1cc2cc(CCl)ccc2oc1=O
inactive: KM12 66.8 µM | NCI-H522 15.2 µM | SW-620 30.8 µM | T47D 32.7 µM | RXF 393 19 µM | NCI-H460 43.7 µM | TK-10 72.1 µM | PC-3 18.5 µM | HOP-92 20.7 µM | SK-MEL-2 25.9 µM | HCT-116 25.8 µM | SR 30.4 µM | SK-MEL-28 49 µM | MDA-MB-231 19.7 µM | NCI-H23 21.6 µM | EKVX 36.8 µM | HL-60 41.8 µM | SK-OV-3 > 100 µM | UACC-62 27.2 µM | HCC 2998 58.9 µM
